The target of one data set is T1, D2 receptors (Chlorocebus aethiops, UniProt P52702).
T1 construct: expressed in transfected cells; host or cells: COS cells
In words: Assay for D2 receptor binding activity (3H-YM 09151-2 displacement). Details: species or system African Green monkey. The settings on record: COS cell pellets with recombinant receptor; 0.5 nM 3H-YM 09151-2; test compounds are acid addition salts. As to the method: Assay for D2 and D4 Receptor Binding Activity
Pellets of COS cells containing recombinantly produced D2 or D4 receptors from African Green monkey are used for the assays. The sample is homogenized in 100 volumes (w/vol) of 0.05 M Tris HCl buffer at 4° C. and pH 7.4. The sample is then centrifuged at 30,000× g and resuspended and rehomogenized. The sample is again centrifuged as described above and the final tissue sample is frozen until use. The tissue is resuspended 1:20 (wt/vol) in 0.05 M Tris HCl buffer containing 100 mM NaCl.
Incubations are carried out at […] and contain 0.4 ml of tissue sample, 0.5 nM ^3H-YM 09151-2 (Nemonapride, cis-5-Chloro-2-methoxy-4-(methylamino)-N-(2-methyl-2-(phenylmethyl)-3-pyrrolidinyl)benzamide)and the test compound in a total incubation of 1.0 ml. Nonspecific binding is defined as that binding found in the presence of 1 mM spiperone; without further additions, nonspecific binding is less than 20% of total binding. Binding characteristics of examples of the invention for the D2 and D4 receptor subtypes are shown in Table 2 for […].

Each structure is given as a SMILES string. Where a name gives a salt, the structure may show the parent alone. Where only a bound is given, the exact number is not on record here.

From US6432946B1, “3-aminoalkylamino-2H-1,4-benzoxazines and 3-aminoalkylamino-2H-1,4-benzothiazines: dopamine receptor subtype specific ligands” (Neurogen corporation, priority 1997, dated 2002) come the findings set out here.

T1 sequence (P52702 whole entry): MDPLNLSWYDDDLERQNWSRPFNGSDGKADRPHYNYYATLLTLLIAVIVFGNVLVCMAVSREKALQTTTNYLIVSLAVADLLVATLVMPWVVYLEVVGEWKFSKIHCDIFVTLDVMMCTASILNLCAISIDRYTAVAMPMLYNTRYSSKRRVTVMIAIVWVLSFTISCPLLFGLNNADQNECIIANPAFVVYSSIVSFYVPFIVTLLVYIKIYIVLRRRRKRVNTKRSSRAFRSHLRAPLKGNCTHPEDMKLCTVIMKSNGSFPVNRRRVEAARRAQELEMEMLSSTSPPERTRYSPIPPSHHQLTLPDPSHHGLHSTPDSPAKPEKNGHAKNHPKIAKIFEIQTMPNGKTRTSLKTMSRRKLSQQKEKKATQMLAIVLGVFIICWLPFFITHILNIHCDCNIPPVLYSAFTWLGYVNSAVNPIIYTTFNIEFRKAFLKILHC

In general, Ki refers to a dissociation constant, usually derived from enzyme kinetics or from competition with a known ligand. Regarding `Fc1cnc(N2CCN(CCNC3=Nc4ccccc4OC3)CC2)nc1` [Compound 6, 3-(1-[2-{(4-[5-Fluoropyrimidin-2-yl])piperazin-1-yl}]ethyl)amino-2H-1,4-benzoxazine fumarate], the inhibitory constant (Ki) on D2 receptors is above 100 nM.

For `c1cnc(N2CCN(CCCNC3=Nc4ccccc4SC3)CC2)nc1` [Compound 4], on D2 receptors, the Ki was above 100 nM.

What is called melting point is the temperature, or range, at which the solid turns liquid. The compound `Fc1cnc(N2CCN(CCNC3=Nc4ccccc4OC3)CC2)nc1` (as salt: fumarate) [Compound 6, 3-(1-[2-{(4-[5-Fluoropyrimidin-2-yl])piperazin-1-yl}]ethyl)amino-2H-1,4-benzoxazine fumarate] came in with a melting point of 163 to 164 °C.

Turning to `c1cnc(N2CCN(CCCCNC3=Nc4ccccc4OC3)CC2)nc1` [Compound 1, 3-(1-[4-{(4-Pyrimidin-2-yl)piperazin-1-yl}]butyl) amino-2H-1,4-benzoxazine Difumarate], the Ki at D2 receptors was above 1000 nM.
